Data published in PMC9170845, “Development of a multi faceted platform containing a tetrazine, fluorophore and chelator: synthesis, characterization, radiolabeling, and immuno-SPECT imaging” (EJNMMI Radiopharmacy and Chemistry, 2022).

Assays:
[1] = Fluorescence characterization (excitation/emission spectra, absolute quantum yield); assay type: physicochemical; settings: in DMSO (stated for 13); for fluorescence quantum yield (Φfl): absolute PLQY, integrating sphere
Method: Following the synthesis of the final scaffold, the excitation and emission spectrum, and quantum yield were measured for the uncomplexed scaffold DO3A-BODIPY-Tz (13) in DMSO (Fig. 1), where an excitation λmax = 524 nm, emission λmax = 537 nm and a fluorescence quantum yield (Φfl) of 0.38 was observed. There are reports of tetrazine residues deactivating the fluorescence properties of fluorophores when they belong to the same molecular entity. However, once the tetrazine is conjugated, these properties are reinstated (Oliveira et al. [2017]; Wu and Devaraj [2018]). To ensure this, 13 was conjugated to TCO-NHS 16 in DMSO (Scheme 2). A distinct colour change from red to orange was observed which clearly indicated tetrazine consumption. The fluorescence properties of 17 (see Additional file1: Fig. S36) were then measured and compared to 13 and 4,4′-dicyano-BODIPY (7) (see Additional file1: Fig. S35; λmax excitation = 527 nm, λmax emission = 541 nm, Φfl = 0.87).
Luminescence experiments were conducted on an Edinburgh Instruments FS5 spectrometer using the SC-05 cassette. All spectra were corrected for instrument response. Excitation and emission monochromator bandwidths for 7 and 17 were set to 1 nm, and 1.5 nm for 13. The emission spectrum for 13 was collected with the aid of a Knight Optical 395 nm long-pass filter to reduce the effects of scattering. Solution-based absolute photoluminescent quantum yields (PLQY) were obtained for 7, 13, and 17 via the SC-30 Integrating Sphere cassette with excitation wavelengths of 380, 490, and 378 nm respectively.

[2] = Stability of cyano BODIPY core in acidic conditions (TFA in CDCl3, 1H NMR); assay type: physicochemical; settings: treated with TFA in CDCl3, monitored via 1H NMR, 11 days
Excerpt: Initially our scaffold design comprised of the conventional 4,4′-difluoro-BODIPY fluorophore (Additional file1: Scheme S1). Despite numerous attempts and alternative strategies for completing the synthesis of the platform using the F-BODIPY fluorophore, the route was unsuccessful resulting in either BF2 core removal or complete decomposition (see Additional File), despite there being reports in the literature of similar transformations being successful in the presence of F-BODIPY dyes (Alnajjar et al. [2018]; Tsuji et al. [2018]; Sui et al. [2016]; Compton et al. [2019]; Ieda et al. [2014]). […] The increased stability is believed to be a result of enhanced aromaticity, decreased charge density on the boron, and the formation of a stable 4,4′-dicyano-BODIPY-TFA complex. To the best of our knowledge there has only been one example of an investigation incorporating 4,4′-dicyano-BODIPYs into a chemical synthesis with protecting groups (Uriel et al. [2020]). To reassure the stability of the cyano BODIPY core in acidic conditions, 7 was treated with TFA in CDCl3 and monitored via ^1H NMR (see Additional file1: Fig. S11) (Wang et al. [2018]). […] An alternative route was initially investigated, where the Cbz on 9 underwent hydrogenolysis followed by insertion of the chelator, deprotection, then insertion of the tetrazine. […]

## CCC1=C(C)C2=C(c3ccc(C(=O)NC(CCCCNC(=O)Cc4ccc(C5=NNC=C6CCC(OC(=O)ON7C(=O)CCC7=O)CCCC65)cc4)C(=O)NC(CCCCNC(=O)CN4CCN(CC(=O)O)CCN(CC(=O)O)CCN(CC(=O)O)CC4)C(=O)O)cc3)c3c(C)c(CC)c(C)n3[B-](C#N)(C#N)[N+]2=C1C (stereo not shown) [compound 17]
[1]
  emission λmax: 537 nm
  excitation λmax: 525 nm
  fluorescence quantum yield (Φfl): 0.79

## CCC1=C(C)C2=C(c3ccc(C(=O)NC(CCCCNC(=O)Cc4ccc(-c5nncnn5)cc4)C(=O)NC(CCCCNC(=O)CN4CCN(CC(=O)O)CCN(CC(=O)O)CCN(CC(=O)O)CC4)C(=O)O)cc3)c3c(C)c(CC)c(C)n3[B-](C#N)(C#N)[N+]2=C1C [compound 13, 2,2′,2″-(10-(2-(((S)-5-((S)-6-(2-(4-(1,2,4,5-tetrazin-3-yl)phenyl)acetamido)-2-(4-(4,4-dicyano-2,6-diethyl-1,3,5,7-tetramethyl-4-bora-3a,4a-diaza-s-indacen-8-yl)benzamido)hexanamido)-5-carboxypentyl)amino)-2-oxoethyl)-1,4,7,10-tetraazacyclododecane-1,4,7-triyl)triacetic acid]
[1]
  emission λmax: 537 nm
  excitation λmax: 524 nm
  fluorescence quantum yield (Φfl): 0.38

## CCC1=C(C)C2=C(c3ccc(C(=O)ON4C(=O)CCC4=O)cc3)c3c(C)c(CC)c(C)n3[B-](C#N)(C#N)[N+]2=C1C [compound 7, 4,4-dicyano-8-(4-(succinimidocarboxy)phenyl)-2,6-diethyl-1,3,5,7-tetramethyl-4-bora-3a,4a-diaza-s-indacene]
[2]
  Stability in acidic conditions: no indication of instability even after 11 days
[1]
  emission λmax: 541 nm
  excitation λmax: 527 nm
  fluorescence quantum yield (Φfl): 0.87
